Reference: ChEMBL document CHEMBL4330132, “5-Keto-3-cyano-2,4-diaminothiophenes as selective maternal embryonic leucine zipper kinase inhibitors” (Bioorg Med Chem Lett, 2019)

What was measured:
[1] = biological target: SRSF protein kinase 3 (Homo sapiens) (UniProt Q9UPE1); test: Binding affinity to wild-type human partial length SRPK3 (P41 to P567 residues) expressed in bacterial expression system assessed as residual binding level at 1 uM by Kinomescan method relative to control
[2] = biological target: Discoidin domain-containing receptor 2 (Homo sapiens) (UniProt Q16832); test: Binding affinity to wild-type human partial length DDR2 (V555 to E855 residues) expressed in mammalian expression system assessed as residual binding level at 1 uM by Kinomescan method relative to control
[3] = biological target: Mitogen-activated protein kinase kinase kinase 9 (Homo sapiens) (UniProt P80192); test: Binding affinity to wild-type human partial length MLK1 (V88 to W426 residues) expressed in bacterial expression system assessed as residual binding level at 1 uM by Kinomescan method relative to control
[4] = biological target: Serine/threonine-protein kinase NLK (Homo sapiens) (UniProt Q9UBE8); test: Binding affinity to wild-type human full length NLK (M13 to E527 residues) expressed in bacterial expression system assessed as residual binding level at 1 uM by Kinomescan method relative to control
Chain of Serine/threonine-protein kinase NLK (Homo sapiens) (Q9UBE8 whole entry, the tested form may be a part): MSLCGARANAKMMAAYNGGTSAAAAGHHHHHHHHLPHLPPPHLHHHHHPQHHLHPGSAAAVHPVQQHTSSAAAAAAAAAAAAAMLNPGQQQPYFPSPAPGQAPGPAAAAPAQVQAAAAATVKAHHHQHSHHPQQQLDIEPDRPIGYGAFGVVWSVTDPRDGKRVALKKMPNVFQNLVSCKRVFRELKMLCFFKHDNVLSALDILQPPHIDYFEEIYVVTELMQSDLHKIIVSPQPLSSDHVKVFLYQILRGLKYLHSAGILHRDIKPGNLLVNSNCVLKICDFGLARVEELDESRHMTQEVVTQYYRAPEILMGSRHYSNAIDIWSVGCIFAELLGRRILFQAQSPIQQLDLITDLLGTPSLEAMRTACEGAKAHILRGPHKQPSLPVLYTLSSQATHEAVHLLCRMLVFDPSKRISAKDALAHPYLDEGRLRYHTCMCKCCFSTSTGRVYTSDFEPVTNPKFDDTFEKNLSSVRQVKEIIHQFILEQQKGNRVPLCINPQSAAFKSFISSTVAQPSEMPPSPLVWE

[5] = biological target: Proto-oncogene tyrosine-protein kinase ROS (Homo sapiens) (UniProt P08922); test: Binding affinity to wild-type human partial length ROS1 (A1921 to N2240 residues) expressed in bacterial expression system assessed as residual binding level at 1 uM by Kinomescan method relative to control
[6] = biological target: Cytoplasmic tyrosine-protein kinase BMX (Homo sapiens) (UniProt P51813); test: Binding affinity to wild-type human full length BMX (M1 to H675 residues) expressed in bacterial expression system assessed as residual binding level at 1 uM by Kinomescan method relative to control
[7] = biological target: Protein-tyrosine kinase 2-beta (Homo sapiens) (UniProt Q14289); test: Binding affinity to wild-type human full length PYK2 (M1 to E967 residues) expressed in bacterial expression system assessed as residual binding level at 1 uM by Kinomescan method relative to control
Chain of Protein-tyrosine kinase 2-beta (Homo sapiens) (Q14289 whole entry, looked up, the tested form may be a part): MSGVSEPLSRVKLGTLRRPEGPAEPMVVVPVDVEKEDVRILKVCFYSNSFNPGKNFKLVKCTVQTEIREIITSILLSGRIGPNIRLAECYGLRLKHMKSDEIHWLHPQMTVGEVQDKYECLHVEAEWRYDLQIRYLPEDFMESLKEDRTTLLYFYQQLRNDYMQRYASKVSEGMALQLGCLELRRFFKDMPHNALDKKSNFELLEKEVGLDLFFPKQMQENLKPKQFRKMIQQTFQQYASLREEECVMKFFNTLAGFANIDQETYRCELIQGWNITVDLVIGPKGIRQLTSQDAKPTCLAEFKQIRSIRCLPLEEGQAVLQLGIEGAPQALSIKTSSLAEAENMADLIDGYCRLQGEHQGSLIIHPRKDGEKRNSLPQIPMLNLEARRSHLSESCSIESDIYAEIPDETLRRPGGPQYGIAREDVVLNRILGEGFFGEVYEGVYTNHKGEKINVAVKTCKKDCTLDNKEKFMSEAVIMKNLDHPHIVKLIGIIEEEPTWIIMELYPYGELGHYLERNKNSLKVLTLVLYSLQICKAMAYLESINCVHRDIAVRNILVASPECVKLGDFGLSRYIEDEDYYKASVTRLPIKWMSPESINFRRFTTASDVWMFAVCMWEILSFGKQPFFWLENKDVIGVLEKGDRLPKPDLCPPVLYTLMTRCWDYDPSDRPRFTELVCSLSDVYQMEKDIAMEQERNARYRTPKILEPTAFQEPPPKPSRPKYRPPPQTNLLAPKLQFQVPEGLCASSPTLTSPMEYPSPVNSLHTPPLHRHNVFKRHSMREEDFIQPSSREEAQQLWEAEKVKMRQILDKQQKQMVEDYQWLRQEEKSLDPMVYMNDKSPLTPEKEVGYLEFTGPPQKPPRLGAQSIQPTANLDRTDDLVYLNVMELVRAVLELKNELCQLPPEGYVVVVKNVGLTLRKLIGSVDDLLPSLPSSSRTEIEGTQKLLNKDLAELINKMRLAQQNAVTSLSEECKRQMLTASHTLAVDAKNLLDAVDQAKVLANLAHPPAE

[8] = biological target: cAMP-dependent protein kinase catalytic subunit alpha (Homo sapiens) (UniProt P17612); test: Binding affinity to wild-type human partial length PKAC-alpha (G10 to F351 residues) expressed in bacterial expression system assessed as residual binding level at 1 uM by Kinomescan method relative to control
[9] = biological target: Serine/threonine-protein kinase VRK2 (Homo sapiens) (UniProt Q86Y07); test: Binding affinity to wild-type human partial length VRK2 (M1 to T336 residues) expressed in mammalian expression system assessed as residual binding level at 1 uM by Kinomescan method relative to control
Chain of Serine/threonine-protein kinase VRK2 (Homo sapiens) (Q86Y07 whole entry, the tested form may be a part): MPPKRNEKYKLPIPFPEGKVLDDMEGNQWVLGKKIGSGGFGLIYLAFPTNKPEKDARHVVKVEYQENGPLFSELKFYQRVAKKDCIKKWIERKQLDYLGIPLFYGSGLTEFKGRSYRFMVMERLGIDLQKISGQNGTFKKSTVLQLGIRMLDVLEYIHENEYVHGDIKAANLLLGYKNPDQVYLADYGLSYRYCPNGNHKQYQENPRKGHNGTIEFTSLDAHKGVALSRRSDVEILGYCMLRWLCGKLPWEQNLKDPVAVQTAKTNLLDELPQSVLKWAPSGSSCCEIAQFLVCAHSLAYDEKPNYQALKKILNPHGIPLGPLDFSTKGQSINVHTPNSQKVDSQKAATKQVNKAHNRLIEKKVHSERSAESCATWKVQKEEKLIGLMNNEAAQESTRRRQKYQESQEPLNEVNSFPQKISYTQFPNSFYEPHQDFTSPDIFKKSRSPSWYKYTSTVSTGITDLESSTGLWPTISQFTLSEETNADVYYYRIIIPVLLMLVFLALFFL

[10] = biological target: Dual specificity protein kinase TTK (Homo sapiens) (UniProt P33981); test: Binding affinity to wild-type human partial length TTK (N505 to V798 residues) expressed in bacterial expression system assessed as residual binding level at 1 uM by Kinomescan method relative to control
[11] = biological target: Serine/threonine-protein kinase MRCK gamma (Homo sapiens) (UniProt Q6DT37); test: Binding affinity to wild-type human partial length DMPK2 (S46 to S408 residues) expressed in bacterial expression system assessed as residual binding level at 1 uM by Kinomescan method relative to control
[12] = biological target: Mitogen-activated protein kinase 6 (Homo sapiens) (UniProt Q16659); test: Binding affinity to wild-type human partial length ERK3 (M1 to P413 residues) expressed in bacterial expression system assessed as residual binding level at 1 uM by Kinomescan method relative to control
[13] = biological target: Cyclin-dependent kinase 2 homolog (Plasmodium falciparum (isolate 3D7)) (UniProt P61075); test: Binding affinity to wild-type Plasmodium falciparum full length PK5 (M1 to N288 residues) expressed in mammalian expression system assessed as residual binding level at 1 uM by Kinomescan method relative to control
Chain of Cyclin-dependent kinase 2 homolog (Plasmodium falciparum (isolate 3D7)) (P61075 whole entry, the tested form may be a part): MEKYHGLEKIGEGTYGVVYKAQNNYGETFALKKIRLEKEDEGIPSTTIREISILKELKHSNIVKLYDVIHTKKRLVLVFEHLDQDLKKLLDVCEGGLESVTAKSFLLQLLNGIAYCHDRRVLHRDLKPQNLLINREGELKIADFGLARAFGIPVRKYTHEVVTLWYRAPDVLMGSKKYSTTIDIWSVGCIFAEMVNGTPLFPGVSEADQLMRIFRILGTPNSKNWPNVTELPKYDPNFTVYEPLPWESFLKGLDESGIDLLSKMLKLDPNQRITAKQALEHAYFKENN

[14] = biological target: Mitogen-activated protein kinase kinase kinase 2 (Homo sapiens) (UniProt Q9Y2U5); test: Binding affinity to wild-type human partial length MAP3K2 (S315 to H619 residues) expressed in mammalian expression system assessed as residual binding level at 1 uM by Kinomescan method relative to control
[15] = biological target: Cyclin-dependent kinase 9 (Homo sapiens) (UniProt P50750); test: Binding affinity to wild-type human full length CDK9 (M1 to F372 residues) expressed in bacterial expression system assessed as residual binding level at 1 uM by Kinomescan method relative to control
[16] = biological target: Mitogen-activated protein kinase kinase kinase 15 (Homo sapiens) (UniProt Q6ZN16); test: Binding affinity to wild-type human partial length MAP3K15 (T625 to L932 residues) expressed in mammalian expression system assessed as residual binding level at 1 uM by Kinomescan method relative to control
[17] = biological target: Angiopoietin-1 receptor (Homo sapiens) (UniProt Q02763); test: Binding affinity to wild-type human partial length TIE2 (N804 to T1112 residues) expressed in bacterial expression system assessed as residual binding level at 1 uM by Kinomescan method relative to control
[18] = biological target: MAP kinase-activated protein kinase 2 (Homo sapiens) (UniProt P49137); test: Binding affinity to wild-type human partial length MAPKAPK2 (V48 to D345 residues) expressed in bacterial expression system assessed as residual binding level at 1 uM by Kinomescan method relative to control
[19] = biological target: Serine/threonine-protein kinase RIO2 (Homo sapiens) (UniProt Q9BVS4); test: Binding affinity to wild-type human partial length RIOK2 (M1 to D313 residues) expressed in mammalian expression system assessed as residual binding level at 1 uM by Kinomescan method relative to control
Chain of Serine/threonine-protein kinase RIO2 (Homo sapiens) (Q9BVS4 whole entry, looked up, the tested form may be a part): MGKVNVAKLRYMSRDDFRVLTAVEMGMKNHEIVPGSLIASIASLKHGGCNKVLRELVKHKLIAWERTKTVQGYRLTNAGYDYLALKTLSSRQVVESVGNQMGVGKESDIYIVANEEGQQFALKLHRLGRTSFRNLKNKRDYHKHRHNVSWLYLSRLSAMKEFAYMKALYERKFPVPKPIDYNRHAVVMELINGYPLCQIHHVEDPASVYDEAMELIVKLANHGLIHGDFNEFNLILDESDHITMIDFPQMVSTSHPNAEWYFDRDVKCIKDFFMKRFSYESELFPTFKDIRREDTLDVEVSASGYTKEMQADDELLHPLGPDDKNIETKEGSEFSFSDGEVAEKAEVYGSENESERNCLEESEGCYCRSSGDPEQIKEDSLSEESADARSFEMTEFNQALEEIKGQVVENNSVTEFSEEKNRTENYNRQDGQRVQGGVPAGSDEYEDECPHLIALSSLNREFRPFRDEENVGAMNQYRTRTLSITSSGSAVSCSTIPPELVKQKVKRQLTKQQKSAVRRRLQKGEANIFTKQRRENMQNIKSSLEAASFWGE

[20] = biological target: Tyrosine-protein kinase TXK (Homo sapiens) (UniProt P42681); test: Binding affinity to wild-type human partial length TXK (L238 to W527 residues) expressed in bacterial expression system assessed as residual binding level at 1 uM by Kinomescan method relative to control
Chain of Tyrosine-protein kinase TXK (Homo sapiens) (P42681 whole entry, the tested form may be a part): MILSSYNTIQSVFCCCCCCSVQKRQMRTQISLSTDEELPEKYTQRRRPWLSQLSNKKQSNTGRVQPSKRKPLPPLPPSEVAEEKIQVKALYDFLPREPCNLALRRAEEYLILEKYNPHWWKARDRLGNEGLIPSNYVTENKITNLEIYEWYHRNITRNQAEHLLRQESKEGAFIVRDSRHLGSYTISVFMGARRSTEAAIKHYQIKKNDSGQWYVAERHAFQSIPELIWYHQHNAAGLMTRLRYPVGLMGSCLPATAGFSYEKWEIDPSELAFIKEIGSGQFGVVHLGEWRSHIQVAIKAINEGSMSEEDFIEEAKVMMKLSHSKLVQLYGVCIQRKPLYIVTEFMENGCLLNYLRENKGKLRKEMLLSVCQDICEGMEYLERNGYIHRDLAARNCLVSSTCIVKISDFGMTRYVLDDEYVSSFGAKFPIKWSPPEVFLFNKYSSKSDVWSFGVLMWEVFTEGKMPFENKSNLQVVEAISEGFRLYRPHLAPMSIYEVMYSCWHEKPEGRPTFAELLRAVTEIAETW

[21] = biological target: Tyrosine-protein kinase JAK2 (Homo sapiens) (UniProt O60674); test: Binding affinity to wild-type human partial length JAK2 JH1 catalytic domain (A829 to G1132 residues) expressed in mammalian expression system assessed as residual binding level at 1 uM by Kinomescan method relative to control
[22] = biological target: Mitogen-activated protein kinase kinase kinase 12 (Homo sapiens) (UniProt Q12852); test: Binding affinity to wild-type human full length DLK (M1 to P859 residues) expressed in mammalian expression system assessed as residual binding level at 1 uM by Kinomescan method relative to control
[23] = biological target: Serine/threonine-protein kinase 38 (Homo sapiens) (UniProt Q15208); test: Binding affinity to wild-type human partial length NDR1 (N33 to E449 residues) expressed in mammalian expression system assessed as residual binding level at 1 uM by Kinomescan method relative to control
[24] = biological target: Ephrin type-A receptor 8 (Homo sapiens) (UniProt P29322); test: Binding affinity to wild-type human partial length EPHA8 (Q608 to C920 residues) expressed in bacterial expression system assessed as residual binding level at 1 uM by Kinomescan method relative to control
Chain of Ephrin type-A receptor 8 (Homo sapiens) (P29322 whole entry, the tested form may be a part): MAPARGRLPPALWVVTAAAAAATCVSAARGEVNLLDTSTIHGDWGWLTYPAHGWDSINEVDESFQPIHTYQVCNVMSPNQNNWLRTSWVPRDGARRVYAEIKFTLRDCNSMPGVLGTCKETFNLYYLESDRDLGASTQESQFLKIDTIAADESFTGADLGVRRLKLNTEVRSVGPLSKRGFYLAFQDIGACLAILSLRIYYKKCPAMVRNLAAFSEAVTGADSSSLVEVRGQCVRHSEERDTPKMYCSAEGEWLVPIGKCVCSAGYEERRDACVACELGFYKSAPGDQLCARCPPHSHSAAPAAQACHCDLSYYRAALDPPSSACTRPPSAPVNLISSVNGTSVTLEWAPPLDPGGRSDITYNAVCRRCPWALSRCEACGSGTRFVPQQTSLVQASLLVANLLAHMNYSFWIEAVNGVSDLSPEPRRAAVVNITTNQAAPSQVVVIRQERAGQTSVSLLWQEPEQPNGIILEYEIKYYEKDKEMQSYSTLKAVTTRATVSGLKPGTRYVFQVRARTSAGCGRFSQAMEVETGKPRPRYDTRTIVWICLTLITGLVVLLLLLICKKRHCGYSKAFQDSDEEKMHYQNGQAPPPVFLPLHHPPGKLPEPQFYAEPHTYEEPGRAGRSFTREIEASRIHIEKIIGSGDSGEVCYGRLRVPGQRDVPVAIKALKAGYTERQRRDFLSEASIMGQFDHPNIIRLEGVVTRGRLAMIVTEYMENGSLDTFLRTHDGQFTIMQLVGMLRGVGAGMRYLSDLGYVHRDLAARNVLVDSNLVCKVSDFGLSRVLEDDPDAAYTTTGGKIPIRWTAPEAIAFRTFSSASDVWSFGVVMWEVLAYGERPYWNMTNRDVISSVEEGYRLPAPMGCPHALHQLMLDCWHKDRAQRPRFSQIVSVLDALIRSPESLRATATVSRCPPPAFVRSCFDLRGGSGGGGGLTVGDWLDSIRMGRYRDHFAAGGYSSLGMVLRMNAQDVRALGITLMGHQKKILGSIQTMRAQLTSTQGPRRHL

Chain of SRSF protein kinase 3 (Homo sapiens) (Q9UPE1 whole entry, the tested form may be a part): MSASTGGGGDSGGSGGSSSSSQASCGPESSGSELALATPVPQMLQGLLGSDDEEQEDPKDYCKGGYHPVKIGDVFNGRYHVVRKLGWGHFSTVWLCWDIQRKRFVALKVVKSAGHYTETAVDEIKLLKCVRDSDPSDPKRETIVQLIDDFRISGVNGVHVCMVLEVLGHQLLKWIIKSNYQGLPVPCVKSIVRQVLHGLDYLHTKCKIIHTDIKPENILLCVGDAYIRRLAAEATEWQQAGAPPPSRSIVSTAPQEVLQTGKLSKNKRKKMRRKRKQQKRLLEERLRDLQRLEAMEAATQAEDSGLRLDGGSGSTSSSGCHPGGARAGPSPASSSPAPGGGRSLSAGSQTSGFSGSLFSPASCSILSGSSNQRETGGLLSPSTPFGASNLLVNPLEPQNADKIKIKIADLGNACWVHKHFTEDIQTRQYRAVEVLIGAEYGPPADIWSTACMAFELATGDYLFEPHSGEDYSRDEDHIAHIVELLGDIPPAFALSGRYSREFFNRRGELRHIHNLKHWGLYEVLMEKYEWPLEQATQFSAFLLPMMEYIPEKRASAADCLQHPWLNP

## CC(C)Nc1sc(C(=O)c2ccc(Cl)s2)c(N)c1C#N
[1]
  Activity: 96%
[2]
  Activity: 100%
[3]
  Activity: 98%
[4]
  Activity: 79%
[5]
  Activity: 82%
[6]
  Activity: 100%
[7]
  Activity: 100%
[8]
  Activity: 85%
[9]
  Activity: 100%
[10]
  Activity: 49%
[11]
  Activity: 100%
[12]
  Activity: 100%
[13]
  Activity: 94%
[14]
  Activity: 98%
[15]
  Activity: 83%
[16]
  Activity: 100%
[17]
  Activity: 96%
[18]
  Activity: 83%
[19]
  Activity: 100%
[20]
  Activity: 87%
[21]
  Activity: 100%
[22]
  Activity: 99%
[23]
  Activity: 74%
[24]
  Activity: 86%
